Assay results reported in patent publication US20240316047A1, “INHIBITORS OF RNA HELICASE DHX9 AND USES THEREOF” (ACCENT THERAPEUTICS, INC., priority 2022, published 2024).

Biological target: Human recombinant DHX9 protein (Homo sapiens (Human), UniProt Q08211)
Assay: DHX9 ATPase assay (ADP-Glo)
Type: biochemical
Conditions: for IC50: read-out: DHX9 Biochemical Inflection Point

Human recombinant DHX9 protein, sequence (Q08211 whole entry): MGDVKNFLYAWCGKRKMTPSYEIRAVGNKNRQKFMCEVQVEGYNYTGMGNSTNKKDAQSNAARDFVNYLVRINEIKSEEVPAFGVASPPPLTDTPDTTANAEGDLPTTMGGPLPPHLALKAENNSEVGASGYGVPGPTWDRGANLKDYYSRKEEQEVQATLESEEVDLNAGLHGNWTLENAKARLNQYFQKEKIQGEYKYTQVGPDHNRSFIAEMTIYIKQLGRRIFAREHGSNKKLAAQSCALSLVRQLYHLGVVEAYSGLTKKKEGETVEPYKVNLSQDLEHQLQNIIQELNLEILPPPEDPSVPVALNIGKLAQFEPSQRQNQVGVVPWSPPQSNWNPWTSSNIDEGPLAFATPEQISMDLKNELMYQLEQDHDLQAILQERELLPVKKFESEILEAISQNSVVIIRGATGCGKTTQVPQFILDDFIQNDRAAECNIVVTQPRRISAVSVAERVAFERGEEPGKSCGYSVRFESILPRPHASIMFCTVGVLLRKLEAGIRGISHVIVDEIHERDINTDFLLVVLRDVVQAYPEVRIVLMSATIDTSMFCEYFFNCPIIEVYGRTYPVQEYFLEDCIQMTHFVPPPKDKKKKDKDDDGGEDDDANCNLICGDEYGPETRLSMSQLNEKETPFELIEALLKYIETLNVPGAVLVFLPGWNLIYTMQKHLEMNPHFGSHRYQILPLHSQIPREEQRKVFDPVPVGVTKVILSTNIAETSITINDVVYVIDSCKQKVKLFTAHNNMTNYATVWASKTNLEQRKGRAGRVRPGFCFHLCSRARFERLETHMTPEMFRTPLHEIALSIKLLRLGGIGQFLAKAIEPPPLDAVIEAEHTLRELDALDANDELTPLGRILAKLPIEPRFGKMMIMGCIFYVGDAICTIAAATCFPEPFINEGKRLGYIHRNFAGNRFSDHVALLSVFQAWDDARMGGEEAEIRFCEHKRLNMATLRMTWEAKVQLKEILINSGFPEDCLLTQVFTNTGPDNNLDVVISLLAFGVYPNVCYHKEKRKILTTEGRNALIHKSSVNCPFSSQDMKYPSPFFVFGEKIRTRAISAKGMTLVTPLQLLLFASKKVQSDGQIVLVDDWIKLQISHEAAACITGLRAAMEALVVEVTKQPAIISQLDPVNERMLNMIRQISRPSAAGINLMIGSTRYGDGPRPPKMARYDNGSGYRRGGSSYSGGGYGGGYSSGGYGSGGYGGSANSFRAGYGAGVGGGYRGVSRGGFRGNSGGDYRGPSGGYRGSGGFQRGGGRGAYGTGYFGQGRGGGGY

Row | DHX9 Biochemical Max Inhibition | IC50 | SMILES
1 | 89.8 | 51.1 nM | Cc1sc(C(=O)Nc2cc(Cl)cc(NS(C)(=O)=O)c2)cc1-c1ncc(N2CC3(C2)CC(F)(F)C3)cc1F [Example 511]
2 | 63.3 | 43.3 nM | Cn1cc(C(=O)Nc2cc(Cl)cc(NS(C)(=O)=O)c2)cc1-c1ncc(N2CCC(F)(F)C2)cc1F [Example 525]
3 | 64.1% |  | Cc1cc(C#N)cnc1-c1cc(C(=O)Nc2cc(Cl)cc(NS(C)(=O)=O)c2)sc1C [Example 376]
4 | 64.5 | 13.3 nM | Cc1cc(C(=O)Nc2cc(Cl)cc(NS(C)(=O)=O)c2)cn1-c1ncc(N2CC3(C2)CC(F)(F)C3)cn1 [Example 413]
5 | 81.5 | 2.7 nM | Cc1sc(C(=O)Nc2cc(Cl)cc(NS(C)(=O)=O)c2)cc1-c1cn(C2CCOCC2)nn1 [Example 692]
6 | 70.6% | 7.2 nM | Cc1sc(C(=O)Nc2cc(Cl)cc(NS(C)(=O)=O)c2)cc1-c1ncccc1O [Example 227]
7 | 85.3 | 6.8 nM | COC1CN(c2ccc(-c3cc(C(=O)Nc4cc(Cl)cc(NS(C)(=O)=O)c4)cn3C)nc2)C1 [Example 465]
8 | 69% | 3.2 nM | Cc1sc(C(=O)Nc2cc(Br)cc(NS(C)(=O)=O)c2)cc1-c1ccccn1 [Example 23]
9 | 68.7 | 29.9 nM | Cc1sc(C(=O)Nc2cc(Cl)cc(NS(C)(=O)=O)c2)cc1-c1ncc(N2CC(C(F)(F)F)C2)cn1 [Example 489]
10 | 67.1 | 145 nM | CC(C)n1cc(C(=O)Nc2cc(Cl)cc(NS(C)(=O)=O)c2)cc1-c1ncc(F)cn1 [Example 667]
11 | 93.9 | 5.2 nM | Cc1cc(C(=O)Nc2cc(Cl)cc(NS(C)(=O)=O)c2)cn1-c1ccc(N2CC3COCC3C2)cn1 (stereo not drawn) [Example 405]
12 | 68% | 6.4 nM | CCS(=O)(=O)Nc1cc(Cl)cc(NC(=O)c2cc(-c3ncccn3)c(C)s2)c1 [Example 27]
13 | 80.5 | 32.9 nM | Cc1sc(C(=O)Nc2cc(Cl)cc(NS(C)(=O)=O)c2)cc1-c1ncc(OC2CCC2)cn1 [Example 452]
14 | 69.7 | 45.3 nM | Cc1sc(C(=O)Nc2cc(Cl)cc(NS(C)(=O)=O)c2)cc1-c1ncc(N2CC(F)(F)C2)cc1OC(F)F [Example 536]
15 | 70.2 | 12.5 nM | CN1CC(Oc2cnc(-c3cc(C(=O)Nc4cc(Cl)cc(NS(C)(=O)=O)c4)cn3CC(F)F)nc2)C1 [Example 679]
16 | 55.9 | 26.9 nM | Cn1cc(C(=O)Nc2cc(Cl)cc(NS(C)(=O)=O)c2)cc1-c1ncc(N2CCC3(C2)CC3(F)F)cn1 (stereo not drawn) [Example 494]
17 | 69.35 | 17.5 nM | Cn1cc(C(=O)Nc2cc(Cl)cc(NS(C)(=O)=O)c2)cc1-c1ccc(N2CC(F)(F)C2)cn1 [Example 595, N-(3-chloro-5-methanesulfonamidophenyl)-5-[5-(3,3-difluoroazetidin-1-yl)pyridin-2-yl]-1-methyl-1H-pyrrole-3-carboxamide]
18 | 67.1 | 28.3 nM | Cc1sc(C(=O)Nc2cc(Cl)cc(NS(C)(=O)=O)c2)cc1-c1ncc(N2CC(F)(F)C2)cc1OCC(F)(F)F [Example 707]
19 | 46.1 | 53.9 nM | Cc1cc(N2CC(F)(F)C2)cnc1-c1cc(C(=O)Nc2cc(Cl)cc(NS(C)(=O)=O)c2)cn1C [Example 461]
20 | 73% | 25.7 nM | CCS(=O)(=O)Nc1cc(Cl)cc(NC(=O)c2cc(-c3ccc(F)cn3)c(C)s2)c1 [Example 346]
21 | 70.9 | 16.7 nM | CCc1sc(C(=O)Nc2cc(Cl)cc(NS(C)(=O)=O)c2)cc1-c1ncccc1F [Example 587]
22 | 69.3 | 20.5 nM | Cc1cc(C(=O)Nc2cc(Cl)cc(NS(C)(=O)=O)c2)cn1-c1ccc(N2CCCC2=O)cn1 [Example 410]
23 | 67.3% | 118 nM | Cc1sc(C(=O)Nc2cc(Cl)cc(NS(C)(=O)=O)c2)cc1-c1ncc(C(F)(F)F)cc1F [Example 368]
24 | 62.7% | 123 nM | Cc1sc(C(=O)Nc2cc(Cl)cc(NS(C)(=O)=O)c2)cc1-c1ccccc1 [Example 11]

The next lines start with the molecule.

Row | SMILES | DHX9 Biochemical Max Inhibition | IC50
25 | Cc1sc(C(=O)Nc2cc(Cl)cc(NS(C)(=O)=O)c2)cc1-c1ncccc1OC(C)c1cc(F)cc(F)c1 (single isomer, unassigned) [Example 632] | 71.5 | 241 nM
26 | CC(C)Oc1cc(N2CC(F)(F)C2)cnc1-c1cc(C(=O)Nc2cc(Cl)cc(NS(C)(=O)=O)c2)cn1C [Example 513] | 56.4 | 77.7 nM
27 | CS(=O)(=O)Nc1cc(Cl)cc(NC(=O)c2cnn(-c3ncccc3OCc3cccc(Cl)c3)c2)c1 [Example 70] | 78.9% | 8.5 nM
28 | CS(=O)(=O)Nc1cc(Cl)cc(NC(=O)c2cnn(C3CC4(CNC4)C3)c2)c1 [Example 146] | 71.9% | 30.4 nM
29 | CS(=O)(=O)Nc1cc(Cl)cc(NC(=O)c2cnn(-c3ncccc3COc3cncc(F)c3)c2)c1 [Example 262] | 66.5% | 120 nM
30 | CCn1cc(C(=O)Nc2cc(Cl)cc(NS(C)(=O)=O)c2)cc1-c1ccc(N2CCOCC2)cn1 [Example 274] | 72.1% | 32.2 nM
31 | CN1CCN(c2csc(C(=O)Nc3cc(Cl)cc(NS(C)(=O)=O)c3)c2)CC1=O [Example 661] | 78.6 | 3.2 nM
32 | CCS(=O)(=O)Nc1cc(Cl)cc(NC(=O)c2cc(-c3cccnc3)cs2)c1 [Example 110] | 53.7% | 40 nM
33 | CS(=O)(=O)Nc1cc(Br)cc(NC(=O)c2cnn(-c3cc(C#N)ccc3OCc3ccccc3)c2)c1 [Example 67] | 54% | 154 nM
34 | Cn1cc(C(=O)Nc2cc(Cl)cc(NS(C)(=O)=O)c2)cc1-c1ncc(N2CCC3(CC2)CC3)cc1F [Example 468] | 96 | 132 nM
35 | Cn1nc(C(=O)Nc2cc(Cl)cc(NS(C)(=O)=O)c2)cc1-c1ccccc1OCc1ccccc1 [Example 138, 5-(2-(benzyloxy)phenyl)-N-(3-chloro-5-(methylsulfonamido)phenyl)-1-methyl-1H-pyrazole-3-carboxamide] | 42.6% | 13500 nM
36 | CS(=O)(=O)Nc1cc(Cl)cc(NC(=O)c2cnn(C3CCN(CC(F)(F)F)CC3)c2)c1 [Example 316] | 66.6% | 205 nM
37 | Cc1cc(C(=O)Nc2cc(Cl)cc(NS(C)(=O)=O)c2)cn1-c1ncc(OC(C)(C)C)cn1 [Example 664] | 68.8 | 87.7 nM
38 | Cc1cc(C(=O)Nc2cc(Cl)cc(NS(C)(=O)=O)c2)cn1-c1ccc(N2CCN(C)C(=O)C2)cn1 [Example 94] | 72.4% | 1.8 nM
39 | CS(=O)(=O)Nc1cc(Cl)cc(NC(=O)c2cnn(C3CCOC3)c2)c1 (stereo not drawn) [Example 182] | 73.4% | 181 nM
40 | CS(=O)(=O)Nc1cc(Br)cc(NC(=O)c2cnn(-c3ncccn3)c2)c1 [Example 50, N-(3-bromo-5-(methylsulfonamido)phenyl)-1-(pyrimidin-2-yl)-1H-pyrazole-4-carboxamide] | 55.5% | 45 nM

Row | SMILES | DHX9 Biochemical Max Inhibition | IC50
41 | CS(=O)(=O)Nc1cc(Br)cc(NC(=O)c2cnn(-c3ccc(N4CCOCC4)cn3)c2)c1 [Example 55] | 48.6% | 9.9 nM
42 | CS(=O)(=O)Nc1cc(Br)cc(NC(=O)c2cnn(-c3cnccn3)c2)c1 [Example 40] | 60% | 15.7 nM
43 | Cn1cc(C(=O)Nc2cc(Cl)cc(NS(C)(=O)=O)c2)cc1-c1ccc(C#N)cn1 [Example 570] | 69.8 | 21.4 nM
44 | CS(=O)(=O)Nc1cc(Cl)cc(NC(=O)c2cnn(-c3ncc(N4CCOCC4)cc3OCc3cccnc3)c2)c1 [Example 194] | 64.3% | 6.8 nM
45 | Cc1cccnc1-c1nc(C(=O)Nc2cc(Br)cc(NS(C)(=O)=O)c2)cn1C [Example 96, N-(3-bromo-5-(methylsulfonamido)phenyl)-1-methyl-2-(3-methylpyridin-2-yl)-1H-imidazole-4-carboxamide] | 52.8% | 253 nM
46 | CS(=O)(=O)Nc1cc(Cl)cc(NC(=O)c2cnn(CCc3ccccc3)c2)c1 [Example 308] | 60.6% | 375 nM
47 | CS(=O)(=O)Nc1cc(Cl)cc(NC(=O)c2cc(-c3ncccc3OCc3ccccc3)c(CO)s2)c1 [Example 216] | 78% | 4.4 nM
48 | CS(=O)(=O)Nc1cc(Cl)cc(NC(=O)c2cnn(-c3ccc(C4CCOCC4)cn3)c2)c1 [Example 190] | 68.8% | 19.1 nM
49 | Cc1cc(C(=O)Nc2cc(Cl)cc(NS(C)(=O)=O)c2)cn1-c1ccc(N2CCOC2=O)cn1 [Example 416] | 81.8 | 13.5 nM
50 | Cc1cccnc1-n1cc(C(=O)Nc2cc(Br)cc(NS(C)(=O)=O)c2)cn1 [Example 49] | 58.6% | 49.7 nM
51 | Cc1cccnc1-c1csc(C(=O)Nc2cc(Cl)cc(NS(=O)(=O)C(C)C)c2)c1 [Example 373] | 49.9% | 
52 | CCOc1ccc(-c2cc(C(=O)Nc3cc(Cl)cc(NS(C)(=O)=O)c3)cn2C)nc1 [Example 572] | 73.3 | 11.2 nM
53 | CN(C)CCOc1cnc(-c2cc(C(=O)Nc3cc(Cl)cc(NS(C)(=O)=O)c3)cn2C)c(F)c1 [Example 646] | 66.6 | 7.9 nM
54 | CS(=O)(=O)Nc1cc(Cl)cc(NC(=O)c2cnn(-c3ncccc3OCc3cncc(F)c3)c2)c1 [Example 186] | 87.9% | 3.9 nM
55 | CS(=O)(=O)Nc1cc(Cl)cc(NC(=O)c2cnn(-c3ncccc3OCc3cncnc3)c2)c1 [Example 188] | 66.2% | 18.8 nM
